{
  "source": "patent US8802597B2",
  "about": "“Herbicidal pyrimidines” (E I du Pont de Nemours and Company, priority 2003, dated 2014)",
  "test_in_all_cases": "Test C postemergence",
  "type_in_all_cases": "in vivo",
  "key": {"[1]": {"tested_on": "blackgrass (Alopecurus myosuroides)", "settings": "for pest or weed control at 125 g/ha: 125 g ai/ha; for Plant response rating, Blackgrass: scale 0 to 100", "in_short": "(§1)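 Injury scored visually 12–14 days after application on 0–100 scale (100 = complete control), relative to controls. Compounds, formulated with surfactant in non-phytotoxic solvent, applied to soil at planting (pre) or to 1- to 4-leaf plants 2–18 cm tall (post) in greenhouse.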"}, "wild oat (Avena fatua)": {"tested_on": "wild oat (Avena fatua)", "settings": "for pest or weed control at 125 g/ha: 125 g ai/ha; for Plant response rating, Oat, Wild: scale 0 to 100", "in_short": "as §1"}, "[2]": {"tested_on": "windgrass (Apera spica-venti)", "settings": "for pest or weed control at 125 g/ha: 125 g ai/ha; for Plant response rating, Windgrass: scale 0 to 100", "in_short": "as §1"}, "[3]": {"tested_on": "Italian ryegrass (Lolium multiflorum)", "settings": "for pest or weed control at 125 g/ha: 125 g ai/ha; for Plant response rating, Ryegrass, Italian: scale 0 to 100", "in_short": "as §1"}, "[4]": {"tested_on": "canarygrass (Phalaris minor)", "settings": "for pest or weed control at 125 g/ha: 125 g ai/ha; for Plant response rating, Canarygrass: scale 0 to 100", "in_short": "as §1"}, "[5]": {"tested_on": "downy brome (Bromus tectorum)", "settings": "for pest or weed control at 125 g/ha: 125 g ai/ha; for Plant response rating, Bromegrass, Downy: scale 0 to 100", "in_short": "as §1"}, "[6]": {"tested_on": "green foxtail (Setaria viridis)", "settings": "for pest or weed control at 125 g/ha: 125 g ai/ha; for Plant response rating, Foxtail, Green: scale 0 to 100", "in_short": "as §1"}, "[7]": {"tested_on": "wheat (Triticum aestivum)", "settings": "for plant injury at 125 g/ha: 125 g ai/ha; for Plant response rating, Wheat: scale 0 to 100", "in_short": "as §1"}, "[8]": {"settings": "Alopecurus myosuroides, post-emergence, scale 0 to 100 (0 no effect, 100 complete control), read-out: Blackgrass plant response rating"}, "[9]": {"settings": "Avena fatua, post-emergence, scale 0 to 100 (0 no effect, 100 complete control), read-out: Oat, Wild plant response rating"}, "[10]": {"settings": "Apera spica-venti, post-emergence, scale 0 to 100 (0 no effect, 100 complete control), read-out: Windgrass plant response rating"}, "[11]": {"settings": "Lolium multiflorum, post-emergence, scale 0 to 100 (0 no effect, 100 complete control), read-out: Ryegrass, Italian plant response rating"}, "[12]": {"settings": "Phalaris minor, post-emergence, scale 0 to 100 (0 no effect, 100 complete control), read-out: Canarygrass plant response rating"}, "[13]": {"settings": "Bromus tectorum, post-emergence, scale 0 to 100 (0 no effect, 100 complete control), read-out: Bromegrass, Downy plant response rating"}, "[14]": {"settings": "Setaria viridis, post-emergence, scale 0 to 100 (0 no effect, 100 complete control), read-out: Foxtail, Green plant response rating"}, "[15]": {"settings": "Triticum aestivum, post-emergence, scale 0 to 100 (0 no effect, 100 complete control), read-out: Wheat plant response rating"}},
  "data": [
    {"compound": "CNc1nc(C2CC2)nc(C(=O)OC)c1Cl", "note": "[Compound 79]", "values": [
      {"measurement": "Plant response rating (scale of 0 to 100), Blackgrass", "setting": "[1]; 16 g ai/ha", "value": 20},
      {"measurement": "Plant response rating (scale of 0 to 100), Blackgrass", "setting": "[1]; 31 g ai/ha", "value": 40},
      {"measurement": "Plant response rating (scale of 0 to 100), Blackgrass", "setting": "[1]; 62 g ai/ha", "value": 60},
      {"measurement": "pest or weed control at 125 g/ha", "setting": "[1]; [8]", "value": 60, "unit": "%"},
      {"measurement": "Plant response rating (scale of 0 to 100), Oat, Wild", "setting": "wild oat (Avena fatua); 16 g ai/ha", "value": 0},
      {"measurement": "Plant response rating (scale of 0 to 100), Oat, Wild", "setting": "wild oat (Avena fatua); 31 g ai/ha", "value": 25},
      {"measurement": "Plant response rating (scale of 0 to 100), Oat, Wild", "setting": "wild oat (Avena fatua); 62 g ai/ha", "value": 25},
      {"measurement": "pest or weed control at 125 g/ha", "setting": "wild oat (Avena fatua); [9]", "value": 45, "unit": "%"},
      {"measurement": "Plant response rating (scale of 0 to 100), Windgrass", "setting": "[2]; 16 g ai/ha", "value": 40},
      {"measurement": "Plant response rating (scale of 0 to 100), Windgrass", "setting": "[2]; 31 g ai/ha", "value": 40},
      {"measurement": "Plant response rating (scale of 0 to 100), Windgrass", "setting": "[2]; 62 g ai/ha", "value": 45},
      {"measurement": "pest or weed control at 125 g/ha", "setting": "[2]; [10]", "value": 50, "unit": "%"},
      {"measurement": "Plant response rating (scale of 0 to 100), Ryegrass, Italian", "setting": "[3]; 16 g ai/ha", "value": 35},
      {"measurement": "Plant response rating (scale of 0 to 100), Ryegrass, Italian", "setting": "[3]; 31 g ai/ha", "value": 35},
      {"measurement": "Plant response rating (scale of 0 to 100), Ryegrass, Italian", "setting": "[3]; 62 g ai/ha", "value": 40},
      {"measurement": "pest or weed control at 125 g/ha", "setting": "[3]; [11]", "value": 45, "unit": "%"},
      {"measurement": "Plant response rating (scale of 0 to 100), Canarygrass", "setting": "[4]; 16 g ai/ha", "value": 0},
      {"measurement": "Plant response rating (scale of 0 to 100), Canarygrass", "setting": "[4]; 31 g ai/ha", "value": 20},
      {"measurement": "Plant response rating (scale of 0 to 100), Canarygrass", "setting": "[4]; 62 g ai/ha", "value": 25},
      {"measurement": "pest or weed control at 125 g/ha", "setting": "[4]; [12]", "value": 35, "unit": "%"},
      {"measurement": "Plant response rating (scale of 0 to 100), Bromegrass, Downy", "setting": "[5]; 16 g ai/ha", "value": 0},
      {"measurement": "Plant response rating (scale of 0 to 100), Bromegrass, Downy", "setting": "[5]; 31 g ai/ha", "value": 20},
      {"measurement": "Plant response rating (scale of 0 to 100), Bromegrass, Downy", "setting": "[5]; 62 g ai/ha", "value": 30},
      {"measurement": "pest or weed control at 125 g/ha", "setting": "[5]; [13]", "value": 35, "unit": "%"},
      {"measurement": "Plant response rating (scale of 0 to 100), Foxtail, Green", "setting": "[6]; 16 g ai/ha", "value": 20},
      {"measurement": "Plant response rating (scale of 0 to 100), Foxtail, Green", "setting": "[6]; 31 g ai/ha", "value": 20},
      {"measurement": "Plant response rating (scale of 0 to 100), Foxtail, Green", "setting": "[6]; 62 g ai/ha", "value": 30},
      {"measurement": "pest or weed control at 125 g/ha", "setting": "[6]; [14]", "value": 60, "unit": "%"},
      {"measurement": "Plant response rating (scale of 0 to 100), Wheat", "setting": "[7]; 16 g ai/ha", "value": 0},
      {"measurement": "Plant response rating (scale of 0 to 100), Wheat", "setting": "[7]; 31 g ai/ha", "value": 20},
      {"measurement": "Plant response rating (scale of 0 to 100), Wheat", "setting": "[7]; 62 g ai/ha", "value": 30},
      {"measurement": "plant injury at 125 g/ha", "setting": "[7]; [15]", "value": 40, "unit": "%"}
    ]},
    {"compound": "COC(=O)c1nc(C2CC2)nc(NO)c1Br", "note": "[Compound 35]", "values": [
      {"measurement": "Plant response rating, Blackgrass", "setting": "[1]; 250 g ai/ha", "value": 60},
      {"measurement": "Plant response rating, Blackgrass", "setting": "[1]; 500 g ai/ha", "value": 65},
      {"measurement": "pest or weed control at 62 g/ha", "setting": "[1]; Alopecurus myosuroides, post-emergence, 62 g ai/ha, scale 0 to 100 (0 no effect, 100 complete control), read-out: Blackgrass plant response rating", "value": 50, "unit": "%"},
      {"measurement": "pest or weed control at 125 g/ha", "setting": "[1]; [8]", "value": 50, "unit": "%"},
      {"measurement": "Plant response rating, Oat, Wild", "setting": "wild oat (Avena fatua); 250 g ai/ha", "value": 45},
      {"measurement": "Plant response rating, Oat, Wild", "setting": "wild oat (Avena fatua); 500 g ai/ha", "value": 55},
      {"measurement": "pest or weed control at 62 g/ha", "setting": "wild oat (Avena fatua); Avena fatua, post-emergence, 62 g ai/ha, scale 0 to 100 (0 no effect, 100 complete control), read-out: Oat, Wild plant response rating", "value": 30, "unit": "%"},
      {"measurement": "pest or weed control at 125 g/ha", "setting": "wild oat (Avena fatua); [9]", "value": 45, "unit": "%"},
      {"measurement": "Plant response rating, Windgrass", "setting": "[2]; 250 g ai/ha", "value": 65},
      {"measurement": "Plant response rating, Windgrass", "setting": "[2]; 500 g ai/ha", "value": 65},
      {"measurement": "pest or weed control at 62 g/ha", "setting": "[2]; Apera spica-venti, post-emergence, 62 g ai/ha, scale 0 to 100 (0 no effect, 100 complete control), read-out: Windgrass plant response rating", "value": 40, "unit": "%"},
      {"measurement": "pest or weed control at 125 g/ha", "setting": "[2]; [10]", "value": 55, "unit": "%"},
      {"measurement": "Plant response rating, Ryegrass, Italian", "setting": "[3]; 250 g ai/ha", "value": 40},
      {"measurement": "Plant response rating, Ryegrass, Italian", "setting": "[3]; 500 g ai/ha", "value": 40},
      {"measurement": "pest or weed control at 62 g/ha", "setting": "[3]; Lolium multiflorum, post-emergence, 62 g ai/ha, scale 0 to 100 (0 no effect, 100 complete control), read-out: Ryegrass, Italian plant response rating", "value": 40, "unit": "%"},
      {"measurement": "pest or weed control at 125 g/ha", "setting": "[3]; [11]", "value": 40, "unit": "%"},
      {"measurement": "Plant response rating, Canarygrass", "setting": "[4]; 250 g ai/ha", "value": 45},
      {"measurement": "Plant response rating, Canarygrass", "setting": "[4]; 500 g ai/ha", "value": 55},
      {"measurement": "pest or weed control at 62 g/ha", "setting": "[4]; Phalaris minor, post-emergence, 62 g ai/ha, scale 0 to 100 (0 no effect, 100 complete control), read-out: Canarygrass plant response rating", "value": 35, "unit": "%"},
      {"measurement": "pest or weed control at 125 g/ha", "setting": "[4]; [12]", "value": 45, "unit": "%"},
      {"measurement": "Plant response rating, Bromegrass, Downy", "setting": "[5]; 250 g ai/ha", "value": 40},
      {"measurement": "Plant response rating, Bromegrass, Downy", "setting": "[5]; 500 g ai/ha", "value": 40},
      {"measurement": "pest or weed control at 62 g/ha", "setting": "[5]; Bromus tectorum, post-emergence, 62 g ai/ha, scale 0 to 100 (0 no effect, 100 complete control), read-out: Bromegrass, Downy plant response rating", "value": 30, "unit": "%"},
      {"measurement": "pest or weed control at 125 g/ha", "setting": "[5]; [13]", "value": 30, "unit": "%"},
      {"measurement": "Plant response rating, Foxtail, Green", "setting": "[6]; 250 g ai/ha", "value": 60},
      {"measurement": "Plant response rating, Foxtail, Green", "setting": "[6]; 500 g ai/ha", "value": 65},
      {"measurement": "pest or weed control at 62 g/ha", "setting": "[6]; Setaria viridis, post-emergence, 62 g ai/ha, scale 0 to 100 (0 no effect, 100 complete control), read-out: Foxtail, Green plant response rating", "value": 40, "unit": "%"},
      {"measurement": "pest or weed control at 125 g/ha", "setting": "[6]; [14]", "value": 50, "unit": "%"},
      {"measurement": "Plant response rating, Wheat", "setting": "[7]; 250 g ai/ha", "value": 45},
      {"measurement": "Plant response rating, Wheat", "setting": "[7]; 500 g ai/ha", "value": 45},
      {"measurement": "plant injury at 62 g/ha", "setting": "[7]; Triticum aestivum, post-emergence, 62 g ai/ha, scale 0 to 100 (0 no effect, 100 complete control), read-out: Wheat plant response rating", "value": 35, "unit": "%"},
      {"measurement": "plant injury at 125 g/ha", "setting": "[7]; [15]", "value": 40, "unit": "%"}
    ]}
  ]
}
